Assay results from ChEMBL document CHEMBL5608165, “Opportunities and perspectives of small molecular phosphodiesterase inhibitors in neurodegenerative diseases” (Eur J Med Chem, 2024).

Columns and labels:
[1] = target: 3',5'-cyclic-AMP phosphodiesterase 4B (Homo sapiens, UniProt Q07343); test: Inhibition of human recombinant PDE4B1 using […] as substrate preincubated with compound for 15 mins followed by substrate addition and measured after 30 mins by spectrofluorimetric analysis
Phosphodiesterase 4 = Phosphodiesterase 4 (Homo sapiens, UniProt P27815+Q08499+Q07343+Q08493); test: Inhibition of PDE4 (unknown origin); assay type: protein assay
Histone deacetylase 1 = Histone deacetylase 1 (Homo sapiens, UniProt Q13547); test: Inhibition of HDAC1 (unknown origin)
[2] = target: T1, cGMP-specific 3',5'-cyclic phosphodiesterase (Homo sapiens, UniProt O76074); test: Inhibition of PDE5A (unknown origin)
Acetylcholinesterase = Acetylcholinesterase (Homo sapiens, UniProt P22303); test: Inhibition of AChE (unknown origin) using acetylthiocholine iodide as substrate by Ellman's method
[3] = target: High affinity 3',5'-cyclic-AMP phosphodiesterase 7A (Homo sapiens, UniProt Q13946); test: Inhibition of PDE7A (unknown origin)
[4] = target: 3',5'-cyclic-AMP phosphodiesterase 7B (Homo sapiens, UniProt Q9NP56); test: Inhibition of PDE7B (unknown origin)
[5] = target: T2, cAMP and cAMP-inhibited cGMP 3',5'-cyclic phosphodiesterase 10A (Homo sapiens, UniProt Q9Y233); test: Inhibition of his-tagged recombinant human PDE10A catalytic domain extracted from Escherichia coli BL21(DE3) using [3H]-cAMP as substrate incubated for 10 mins by SPA assay
[6] = target: T3, High affinity cGMP-specific 3',5'-cyclic phosphodiesterase 9A (Homo sapiens, UniProt O76083); test: Inhibition of PDE9A (unknown origin)
[7] = Inhibition of PDE1 (unknown origin); design: species or system Homo sapiens
[8] = target: T2, cAMP and cAMP-inhibited cGMP 3',5'-cyclic phosphodiesterase 10A; test: Inhibition of PDE10A (unknown origin)
[9] = target: cGMP-dependent 3',5'-cyclic phosphodiesterase (Homo sapiens, UniProt O00408); test: Inhibition of PDE2A (unknown origin) using 3H-cGMP as substrate
[10] = target: Dual specificity calcium/calmodulin-dependent 3',5'-cyclic nucleotide phosphodiesterase 1A (Homo sapiens, UniProt P54750); test: Inhibition of human recombinant GST-tagged PDE1A
[11] = target: Dual specificity calcium/calmodulin-dependent 3',5'-cyclic nucleotide phosphodiesterase 1B (Homo sapiens, UniProt Q01064); test: Inhibition of PDE1B (unknown origin)
[12] = target: Dual specificity calcium/calmodulin-dependent 3',5'-cyclic nucleotide phosphodiesterase 1C (Homo sapiens, UniProt Q14123); test: Inhibition of PDE1C (unknown origin)
[13] = target: Glycogen synthase kinase-3 alpha (Homo sapiens, UniProt P49840); test: Inhibition of GSK3alpha (unknown origin)
[14] = target: T3, High affinity cGMP-specific 3',5'-cyclic phosphodiesterase 9A; test: Binding affinity to PDE9A (unknown origin) using [3H]cAMP as substrate assessed as inhibition constant incubated for 1 hr by […]
[15] = target: cGMP-inhibited 3',5'-cyclic phosphodiesterase 3A (Homo sapiens, UniProt Q14432); test: Inhibition of PDE3A (unknown origin) using FAM-cAMP as substrate incubated for 45 mins by TR-FRET analysis
[16] = target: cGMP-inhibited 3',5'-cyclic phosphodiesterase 3B (Homo sapiens, UniProt Q13370); test: Inhibition of human recombinant PDE3B using FAM-cyclic-3',5'-AMP as substrate incubated for 1 hrs by fluorescence polarization based assay
[17] = target: T1, cGMP-specific 3',5'-cyclic phosphodiesterase; test: Inhibition of PDE5A1 (unknown origin) using [3H]-cGMP substrate incubated for 15 mins by liquid scintillation counting method

Sequence of Dual specificity calcium/calmodulin-dependent 3',5'-cyclic nucleotide phosphodiesterase 1C (Q14123 whole entry): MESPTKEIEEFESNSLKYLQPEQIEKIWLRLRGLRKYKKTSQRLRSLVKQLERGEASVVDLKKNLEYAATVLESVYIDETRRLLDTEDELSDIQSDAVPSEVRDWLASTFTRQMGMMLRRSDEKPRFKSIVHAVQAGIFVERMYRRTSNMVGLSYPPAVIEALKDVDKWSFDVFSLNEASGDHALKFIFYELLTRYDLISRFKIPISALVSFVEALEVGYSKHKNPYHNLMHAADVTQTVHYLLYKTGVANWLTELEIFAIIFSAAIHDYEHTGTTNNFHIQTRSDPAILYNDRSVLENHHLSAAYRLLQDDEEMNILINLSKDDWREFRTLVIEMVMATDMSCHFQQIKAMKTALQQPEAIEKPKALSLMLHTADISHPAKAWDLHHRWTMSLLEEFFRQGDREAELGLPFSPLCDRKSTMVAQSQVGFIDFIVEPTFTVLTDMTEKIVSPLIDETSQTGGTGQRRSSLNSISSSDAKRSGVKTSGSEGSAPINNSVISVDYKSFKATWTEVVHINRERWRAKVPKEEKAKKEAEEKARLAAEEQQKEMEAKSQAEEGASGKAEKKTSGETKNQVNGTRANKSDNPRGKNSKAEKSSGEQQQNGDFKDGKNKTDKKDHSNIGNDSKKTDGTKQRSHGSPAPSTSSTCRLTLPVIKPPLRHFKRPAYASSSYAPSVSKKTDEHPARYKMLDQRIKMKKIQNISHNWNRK
Sequence of Acetylcholinesterase (P22303 whole entry): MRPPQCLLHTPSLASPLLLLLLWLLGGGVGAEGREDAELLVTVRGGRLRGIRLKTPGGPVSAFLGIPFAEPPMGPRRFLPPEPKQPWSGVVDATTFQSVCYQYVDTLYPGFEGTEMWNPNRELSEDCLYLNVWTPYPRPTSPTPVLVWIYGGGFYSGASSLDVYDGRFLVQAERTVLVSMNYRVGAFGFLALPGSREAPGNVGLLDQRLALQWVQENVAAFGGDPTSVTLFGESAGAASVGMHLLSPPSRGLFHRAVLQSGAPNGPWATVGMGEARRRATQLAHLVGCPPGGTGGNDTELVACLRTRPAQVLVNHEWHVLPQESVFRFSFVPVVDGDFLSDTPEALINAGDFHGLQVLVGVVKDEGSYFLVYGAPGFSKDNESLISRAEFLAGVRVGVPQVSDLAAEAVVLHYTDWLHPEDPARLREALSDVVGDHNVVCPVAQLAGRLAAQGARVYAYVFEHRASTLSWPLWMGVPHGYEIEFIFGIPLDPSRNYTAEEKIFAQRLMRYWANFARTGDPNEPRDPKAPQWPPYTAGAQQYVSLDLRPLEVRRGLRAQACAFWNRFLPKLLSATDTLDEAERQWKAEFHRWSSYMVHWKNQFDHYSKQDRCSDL
Sequence of High affinity 3',5'-cyclic-AMP phosphodiesterase 7A (Q13946 whole entry): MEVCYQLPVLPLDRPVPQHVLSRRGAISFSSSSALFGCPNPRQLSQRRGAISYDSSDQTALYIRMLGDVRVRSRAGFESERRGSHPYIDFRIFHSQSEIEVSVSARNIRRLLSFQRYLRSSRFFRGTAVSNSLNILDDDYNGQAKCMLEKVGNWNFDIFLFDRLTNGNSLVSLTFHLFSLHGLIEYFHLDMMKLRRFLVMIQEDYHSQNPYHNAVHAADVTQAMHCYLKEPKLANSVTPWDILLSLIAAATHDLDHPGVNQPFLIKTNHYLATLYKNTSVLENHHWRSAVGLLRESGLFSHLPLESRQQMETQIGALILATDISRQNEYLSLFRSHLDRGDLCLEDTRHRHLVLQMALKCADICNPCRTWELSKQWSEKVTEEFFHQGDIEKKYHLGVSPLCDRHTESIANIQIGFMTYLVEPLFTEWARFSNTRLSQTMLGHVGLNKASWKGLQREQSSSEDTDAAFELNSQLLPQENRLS
Sequence of Dual specificity calcium/calmodulin-dependent 3',5'-cyclic nucleotide phosphodiesterase 1B (Q01064 whole entry): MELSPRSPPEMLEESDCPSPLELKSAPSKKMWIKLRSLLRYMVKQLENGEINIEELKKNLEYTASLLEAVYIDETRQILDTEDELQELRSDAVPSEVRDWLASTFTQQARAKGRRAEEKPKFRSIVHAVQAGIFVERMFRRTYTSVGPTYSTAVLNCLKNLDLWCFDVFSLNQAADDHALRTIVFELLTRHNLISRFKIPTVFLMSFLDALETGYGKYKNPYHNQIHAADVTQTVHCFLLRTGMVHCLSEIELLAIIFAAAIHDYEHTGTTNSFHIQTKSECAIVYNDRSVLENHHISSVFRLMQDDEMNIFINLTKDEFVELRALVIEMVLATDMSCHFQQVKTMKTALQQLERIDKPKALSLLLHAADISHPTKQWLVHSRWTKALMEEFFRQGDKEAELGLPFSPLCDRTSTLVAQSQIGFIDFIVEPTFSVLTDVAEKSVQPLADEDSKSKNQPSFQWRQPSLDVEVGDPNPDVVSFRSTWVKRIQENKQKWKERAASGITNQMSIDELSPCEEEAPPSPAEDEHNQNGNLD
T3 sequence (O76083 whole entry): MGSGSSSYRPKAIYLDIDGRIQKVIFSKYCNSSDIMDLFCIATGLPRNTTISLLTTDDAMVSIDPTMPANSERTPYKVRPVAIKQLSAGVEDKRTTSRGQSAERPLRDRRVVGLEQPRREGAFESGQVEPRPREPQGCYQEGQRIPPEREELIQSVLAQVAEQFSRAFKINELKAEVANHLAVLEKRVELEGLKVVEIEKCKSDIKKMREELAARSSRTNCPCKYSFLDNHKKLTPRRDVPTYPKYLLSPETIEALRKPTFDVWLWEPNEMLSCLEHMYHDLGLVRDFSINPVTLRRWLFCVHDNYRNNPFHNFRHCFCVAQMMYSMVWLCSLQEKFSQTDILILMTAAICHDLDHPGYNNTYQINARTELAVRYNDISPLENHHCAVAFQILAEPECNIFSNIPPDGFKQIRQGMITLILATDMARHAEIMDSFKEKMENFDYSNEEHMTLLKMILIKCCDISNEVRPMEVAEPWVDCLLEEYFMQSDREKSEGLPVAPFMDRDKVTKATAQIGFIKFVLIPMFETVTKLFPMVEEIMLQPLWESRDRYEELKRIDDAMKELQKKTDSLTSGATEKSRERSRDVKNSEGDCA
Sequence of 3',5'-cyclic-AMP phosphodiesterase 4B (Q07343 whole entry): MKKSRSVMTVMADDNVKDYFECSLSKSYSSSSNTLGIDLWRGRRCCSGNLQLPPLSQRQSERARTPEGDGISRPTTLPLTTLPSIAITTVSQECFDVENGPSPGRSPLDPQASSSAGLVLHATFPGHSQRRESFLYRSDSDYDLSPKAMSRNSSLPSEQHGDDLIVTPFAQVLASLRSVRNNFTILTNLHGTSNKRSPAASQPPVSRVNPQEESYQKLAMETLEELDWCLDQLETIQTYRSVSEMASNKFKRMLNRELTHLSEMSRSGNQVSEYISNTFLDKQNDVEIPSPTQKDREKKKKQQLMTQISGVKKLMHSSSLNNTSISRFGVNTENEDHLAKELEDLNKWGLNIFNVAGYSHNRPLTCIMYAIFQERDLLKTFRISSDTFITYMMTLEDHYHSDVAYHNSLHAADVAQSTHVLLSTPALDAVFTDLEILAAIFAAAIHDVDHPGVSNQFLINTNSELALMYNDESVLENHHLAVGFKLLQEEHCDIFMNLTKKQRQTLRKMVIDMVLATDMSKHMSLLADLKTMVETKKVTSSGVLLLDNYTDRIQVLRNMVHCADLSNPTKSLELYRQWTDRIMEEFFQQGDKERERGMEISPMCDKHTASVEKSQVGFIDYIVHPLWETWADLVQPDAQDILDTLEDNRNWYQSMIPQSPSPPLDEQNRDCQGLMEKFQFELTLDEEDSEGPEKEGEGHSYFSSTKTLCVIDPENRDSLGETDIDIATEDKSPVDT
T2 sequence (Q9Y233 whole entry, the tested form may be a part): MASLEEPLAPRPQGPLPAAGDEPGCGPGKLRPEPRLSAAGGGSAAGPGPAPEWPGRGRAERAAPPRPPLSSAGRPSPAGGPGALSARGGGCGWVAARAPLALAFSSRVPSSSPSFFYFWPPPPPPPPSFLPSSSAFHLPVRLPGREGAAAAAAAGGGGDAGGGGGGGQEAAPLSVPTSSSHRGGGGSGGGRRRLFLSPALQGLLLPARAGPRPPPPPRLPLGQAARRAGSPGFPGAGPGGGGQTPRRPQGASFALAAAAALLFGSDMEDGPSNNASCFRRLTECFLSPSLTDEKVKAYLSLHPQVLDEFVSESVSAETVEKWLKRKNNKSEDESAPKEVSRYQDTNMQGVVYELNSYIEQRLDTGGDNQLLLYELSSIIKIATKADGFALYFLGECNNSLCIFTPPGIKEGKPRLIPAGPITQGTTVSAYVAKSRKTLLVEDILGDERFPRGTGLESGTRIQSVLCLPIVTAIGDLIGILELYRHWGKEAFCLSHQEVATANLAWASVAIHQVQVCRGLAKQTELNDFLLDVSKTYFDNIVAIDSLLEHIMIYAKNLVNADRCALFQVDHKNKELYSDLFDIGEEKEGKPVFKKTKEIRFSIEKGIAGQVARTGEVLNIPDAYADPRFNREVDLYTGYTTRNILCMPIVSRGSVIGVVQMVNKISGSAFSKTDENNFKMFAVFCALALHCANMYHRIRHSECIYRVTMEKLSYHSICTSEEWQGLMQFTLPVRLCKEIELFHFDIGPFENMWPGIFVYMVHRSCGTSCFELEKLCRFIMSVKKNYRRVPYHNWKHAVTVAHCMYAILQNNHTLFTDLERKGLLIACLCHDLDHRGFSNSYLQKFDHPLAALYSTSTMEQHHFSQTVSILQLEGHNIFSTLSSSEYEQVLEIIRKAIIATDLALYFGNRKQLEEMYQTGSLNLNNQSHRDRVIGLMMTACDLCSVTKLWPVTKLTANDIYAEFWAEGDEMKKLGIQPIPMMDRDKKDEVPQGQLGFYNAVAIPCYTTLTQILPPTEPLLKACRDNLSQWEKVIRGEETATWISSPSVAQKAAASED

O=C(Nc1ccccc1Cl)c1ccc(OC(F)F)c(OC2CCCC2)c1
IC50 [1]: 95 nM
IC50 (Phosphodiesterase 4): 30 nM

O=C(Nc1ccccc1Cl)c1ccc(OC(F)F)c(OCC2CC2)c1
IC50 [1]: 144 nM
IC50 (Phosphodiesterase 4): 90 nM

CCCc1nc(C)c2c(=O)[nH]c(-c3cc(CC4CC(C(=O)NO)C4)ccc3OCC)nn12 (stereo unspecified)
IC50 (Histone deacetylase 1): 208 nM

O=C1[C@H]2Cc3c([nH]c4ccccc34)[C@@H](c3ccc4c(c3)OCO4)N2C(=O)CN1CCC1CCN(Cc2ccccc2)CC1
IC50 [2]: 0.15 nM
IC50 (Acetylcholinesterase): 150 nM

C=CCn1cc(-c2nc3ccccc3nc2Cl)c2cc(OC)ccc21
IC50 [1]: 10.6 nM

CC(C)CCn1c2c(c3c(O)cc(O)cc31)CCn1c-2nc2ccccc2c1=O
IC50 [2]: 36 nM

Cc1ccc([N+](=O)[O-])cc1S(=O)(=O)N(C)C
IC50 [3]: 150 nM
IC50 [4]: 12100 nM

CCCc1nn(C)c2c(=O)[nH]c(-c3cc(Cc4ccc(C(=O)Nc5ccccc5N)cc4)ccc3OCC)nc12
IC50 (Histone deacetylase 1): 180 nM

O=C1[C@@H]2Cc3c([nH]c4ccccc34)[C@@H](c3ccc4c(c3)OCO4)N2C(=O)CN1CCC1CCN(Cc2ccccc2)CC1
IC50 [2]: 1.63 nM
IC50 (Acetylcholinesterase): 1630 nM

O=c1c(/C=C/c2nc3cc(Cl)ccc3n2-c2ccccc2)coc2ccc(F)cc12
IC50 [5]: 9.5 nM

COc1ccc([C@@H]2c3[nH]c4ccccc4c3C[C@H]3C(=O)N(CCC4CCN(Cc5ccccc5)CC4)CC(=O)N23)cc1
IC50 [2]: 3.2 nM
IC50 (Acetylcholinesterase): 3200 nM

C[C@@H](NC(=O)/C=C/c1cccc(O)c1)c1nc2c(cnn2C2CCCC2)c(=O)[nH]1
IC50 [6]: 58 nM

CCc1cc(C#N)cc2c(NCc3ccc(OC)c(Cl)c3)c(COCCF)cnc12
IC50 [2]: 33.4 nM

CC(C)(C)n1ncc2c(=O)n(Cc3cccc(F)c3)c(NCc3ccc(F)cn3)nc21
IC50 [7]: 40 nM

COc1cc2ncnc(NCCc3c[nH]c4ccc(O)cc34)c2cc1OC
IC50 [8]: 0.64 nM

C[C@@H]1CC(Cc2ccc(C(=O)NO)cc2)C[C@H]1c1nc2c(cnn2C2CCCC2)c(=O)[nH]1 (stereo partly specified)
IC50 [6]: 107 nM

CCCCn1c(=O)n(CC)c(=O)c2[nH]c(-c3cccc(C(C)C)c3)cc21
IC50 [6]: 38000 nM

CC(c1cccc2ccccc12)n1cnc2c(=O)[nH]c(Cc3ccccc3)nc21 (stereo unspecified)
IC50 [9]: 570 nM

COc1ccc(/C(CSc2nc3ccccc3c(=O)n2-c2ccccc2)=N\N)cc1
IC50 [3]: 1150 nM

COc1ccc2c(N(C)[C@]3(C)CCO[C@H]3C)ncnc2c1OC
IC50 [10]: 57.5 nM
IC50 [11]: 13.8 nM
IC50 [12]: 46.8 nM

COc1ccc(CNc2c(COCCF)cnc3c(C4CC4)cc(C#N)cc23)cc1Cl
IC50 [2]: 8 nM

Cn1c(OC[C@H]2CC[C@H](C(F)(F)F)CC2)nn2c(C3CCOCC3)ncc2c1=O
IC50 [11]: 43.9 nM
IC50 [12]: 431 nM

CC(C)=CCc1c2c(c3occ(-c4ccc(OS(C)(=O)=O)c(OS(C)(=O)=O)c4)c(=O)c3c1O)CCC(C)(C)O2
IC50 [6]: 5.3 nM

O=C(NCCc1ccccc1)c1cnn2c(=O)cc(-c3ccccc3)[nH]c12
IC50 [9]: 1.9 nM

c1ccc(-c2n/c(=N/CCN3CCOCC3)sn2-c2ccccc2)cc1
IC50 [3]: 1590 nM
IC50 [13]: 880 nM

CCCn1c(=O)c2[nH]c(-c3cccc(C(C)C)c3)cc2n(-c2ccc3c(c2)CNC3C(=O)OC)c1=O (stereo unspecified)
Ki [14]: 1.53 nM

COC[C@H]1CC[C@H](Oc2nn3c(C4CCOCC4)ncc3c(=O)n2C)CC1
IC50 [11]: 7.5 nM
IC50 [12]: 86 nM

O=C1NC(=O)/C(=C/c2ccc(OCCNc3nc4c(cnn4C4CCCC4)c(=O)[nH]3)c(F)c2)S1
IC50 [6]: 1.1 nM

O=C1CCc2cc(OCCCCc3nnnn3C3CCCCC3)ccc2N1 [CILOSTAZOL]
IC50 [15]: 27 nM
IC50 [16]: 50 nM

COc1cc2c(cc1OC)C(=O)C(CC1CCN(Cc3ccccc3)CC1)C2 (stereo unspecified) [DONEPEZIL]
IC50 [17]: 11 nM

CN1C(=O)c2c(nn(Cc3ccc(-c4cccc(F)n4)cc3)c2Nc2ccccc2)N2C1=N[C@@H]1CCC[C@@H]12 [LENRISPODUN]
IC50 [7]: 50 nM

Cn1c(=O)c2[nH]cnc2n(C)c1=O [THEOPHYLLINE ANHYDROUS]
IC50 [7]: 280 nM

CCOC(=O)C1=C[C@]2(CC)CCCN3CCc4c(n1c1ccccc41)[C@@H]32 [VINPOCETINE]
IC50 [7]: 30000 nM
